One experiment relates to anesthetized dogs. Kind of experiment: Atrial fibrillation induced by carbachol infusion and burst stimulation in anesthetized dogs. It is filed as in vivo, dog. Further details: key to AF converted to SR? / AF reinduced?: N, response not observed; Y, response observed. On the procedure:
The effect of SZV-2649 was further investigated in carbachol-infused and programmed electrical stimulation-induced (i.e. 800/min atrial burst stimulation) acute atrial fibillation model in anesthetized dogs.
In the atrial fibrillation experiments, at least 5–6 dogs for control and test groups, (respectively) were used. Following 0.5 µg/kg sufentanyl premedication and […] i.v. pentobarbital anaesthesia induction, left thoracotomy was performed on all animals. Dogs were endotracheally intubated and mechanically ventilated (UGO Basile respirator; Biological Research Apparatus, Italy) Physiological parameters (non-invasive blood pressure, SpO2, ECG) were continuously monitored during surgery and experiments (InnoCare-VET Patient Care Monitor; Budapest, Hungary). The ECGs were recorded using precordial leads and were digitized and stored on a computer for off-line analysis using National Instruments data acquisition hardware (National Instruments, Austin, Texas, USA) and SPEL Advanced Haemosys software (version 3.2, MDE Heidelberg GmbH, Germany). Under pentobarbital anaesthesia, two pacemaker electrodes (Biotronik Solia S 60; Biotronik Ltd., Hungary) were positioned epicardially into the left atrial appendage and apex of the left ventricle, respectively, and electrodes were connected to pacemakers (Effecta D; Biotronik Hungary Ltd., Hungary). Pacemakers were programmed in VVI mode using Biotronik IC: 4808 A-Renamic programmer to prevent the potentially bradycardic effect of carbachol leading to hemodynamic instability. Atrial and ventricular thresholds were measured before AF induction in all animals. Ventricular and atrial pacing were set to three times the measured threshold. AF inducibility were tested in both groups using a control set (25 times) of 10-second-long rapid atrial bursts (800 beats/min, at threefold threshold). Following 25 atrial burst stimuli, 2 × 2 µg/kg loading dose of intravenous carbachol was administered followed by an 8 µg/kg/h maintenance dose. Atrial fibrillation was induced using 10-second-long atrial burst stimuli in the presence of carbachol in both groups of dogs. […] In these experiments, we investigated whether AF was converted to SR by the test drug(s). All intravenous infusions were performed using a programmable infusion pump (Terufusion TE-3; Terumo Europe, Leuven, Belgium).

In experiment [1] the test system is L-type inward calcium current (ICaL). Description: Whole-cell patch-clamp, L-type calcium current in dog ventricular myocytes. It is filed as cell-based. Conditions: 10 µM, dog left ventricular myocytes. On the procedure: (§1) The effects of SZV-2649 on transmemrane ionic currents were investigated in dog cardiac myocytes after a 5-minute superfusion of the drug.
The L-type inward calcium current (ICaL) was measured from a holding potential of -80 mV with a 40 ms prepulse to -40 mV to inactivate INa (see inset of Fig. 3B). Test pulses of 400 ms duration from − 35 mV to 55 mV were applied with a pulsing cycle length of 3 s. In the internal (pipette) solution, KCl was replaced by 125 mM CsCl to block potassium currents.
(§2) Ventricular myocytes from Beagle dogs were enzymatically dissociated as described in detail previously. A single droplet of cell suspension was placed in a transparent recording chamber mounted on the stage of an inverted microscope (Olympus IX51, Olympus, Tokyo, Japan), and individual myocytes were allowed to settle and adhere to the chamber bottom for at least 5–10 min before superfusion was initiated and maintained by gravity. Only rod-shaped cells with clear striations were used. […]
(§3) The membrane currents were recorded with Axopatch-200B amplifiers (Molecular Devices, Sunnyvale, CA, USA) by means of the whole-cell configuration of the patch-clamp technique. […]
The L-type calcium current (ICaL) was recorded in HEPES-buffered Tyrode’s solution supplemented with 3 mM 4-aminopyridine. […]

Experiment [2] deals with late sodium current (INaL). Description: Whole-cell patch-clamp, late sodium current in dog ventricular myocytes. It is filed as cell-based. Conditions: 10 µM, dog left ventricular myocytes. As to the method:
as §1
The late sodium current (INaL) was investigated by application of 2-second-long test pulses to -20 mV from the holding potential of -120 mV with the pulsing cycle length of 5 s. In the internal (pipette) solution, KCl was replaced by 125 mM CsCl to block potassium currents and the external solution contained 1 µM nisoldipine, 0.5 µM HMR-1556 and 0.1 µM dofetilide in order to block ICaL, IKs and IKr currents, respectively.
as §2, §3
A general note: Patch clamp records ionic current or voltage across a cell membrane.

[3] abbreviates: i.v. 10 mg/kg, individual dogs, carbachol + burst, 10 mg/kg.

Values joined by “and” are separate entries in the source; they are usually repeats but may differ in a detail not shown here. Equal entries are not always repeated.

Regarding `CC(N)COc1c(I)cc(C#N)cc1I.Cl` (stereo not drawn) [SZV-2649, 4-(2-aminopropoxy)-3,5-diiodobenzonitrile hydrochloride], the “AF converted to SR?” value in the experiment with anesthetized dogs (i.v. 10 mg/kg, individual dogs, carbachol + burst) is “Y”. In the experiment on anesthetized dogs (setting [3]), the “AF converted to SR? (time printed in cell)” value is 79 s and 175 s and 64 s and 286 s and 84 s and 194 s; the “AF reinduced (number of the 25 burst stimuli)” value was 0/25 and 1/25 and 2/25; the “AF reinduced?” value is “N and Y (2×)”. Besides, in the experiment with anesthetized dogs (i.v. 10 mg/kg, whole group), the “Atrial fibrillation reinduced, share of burst stimuli” value came out at 2% and the “Times atrial fibrillation was reinduced by the 25 burst stimuli delivered in each animal” value is given as 3 times. Moreover, the “Experimental animals in which atrial fibrillation was converted to sinus rhythm” value in the experiment with anesthetized dogs (intravenous bolus 10 mg/kg) stood at 100%. In addition, in experiment [1], the “Effect on magnitude of ICaL” value is reported as “moderately but significantly decreased”. The “Effect on magnitude of INaL” value in experiment [2] was “significantly decreased”.

For the origin of these results see PMC11455950, “Effects of SZV-2649, a new multiple ion channel inhibitor mexiletine analogue” (Scientific Reports, 2024).
